# Data taken from patent US20080081841A1, “Materials and Methods for Modulating Cell Motility” (priority 2003, published 2008).
# How the values were obtained:
# [1] = system: T47D-5R cells expressing Neu or Neu mutants (NYPD, YC, YD, YE); assay: Transwell migration assay, HRG-induced; format: cell-based, human; settings: for HRG-induced migration of Neu cells: starting 4 hrs after HRG treatment, RNA or protein synthesis inhibitor
# Experimental: (§1) Cell migration was tested using 8 μm-pore polycarbonate membrane Transwell chambers (Corning Costar Products, Acton, Mass., USA) as described previously^3. In brief, the bottom side of the membrane was coated with 25 μg/ml rat tail collagen I (Roche). Serum starved cells were plated in the top Transwell chamber. Medium with or without 1 nM HRG-β1 (R&D systems, Inc., Minneapolis, Minn., USA) was added to the bottom chamber and cells were allowed to migrate for 24 hours. Non-migrated cells were scraped off the top of the membrane. Migrated cells were fixed in 4% formaldehyde and stained in 0.1% crystal violet. Cells were counted under a microscope in ten high power fields. Migration was expressed as cell number per mm^2. In some instances, cells were pre-incubated for 60 minutes with the U0126 MEK inhibitor (50 μM; Promega), the LY294002 PI3K inhibitor (50 μM; Calbiochem-Novabiochem Corporation, San Diego, Calif., USA), the SB203580 p38 MAPK inhibitor (20 μM; Calbiochem), a Src inhibitor (2.5 μM), the U-73122 PLC inhibitor (2 μM; Calbiochem), cycloheximide (10 μg/ml; Sigma) or 5,6-dichloro-1-β-D-ribofuranosylbenzimidazole (20 μg/ml; Fluka Chemie GmbH, Buchs, Switzerland). Cells were then allowed to migrate for 8 hours before counting.
# (§2) Cells were transfected with siRNA using Oligofectamine (GIBCO) according to the manufacturer's instructions. The following 21-mer oligoribonucleotide pairs (obtained from Xeragon Inc., Huntsville, Ala., USA) were used: for Shc (accession number HSU7377) nucleotide 236 to 25640, for Memo (CGI-27; accession number AF132961) nucleotide 460 to 480 and for control LacZ (accession number M55068) nucleotide 4277 to 4297. Cells were plated for migration assay 3 days after siRNA transfection and allowed to migrate for 24 hours. Cell lysates were also prepared 3 and 4 days after transfection and analyzed by Western blotting using a specific anti-Shc antibody (BD Transduction laboratories, Heidelberg, Germany). For Memo, mRNA was extracted using RNeasy Mini (Qiagen, Cologne, Germany) and quantitative radioactive PCR^41 was performed using Memo specific primers (forward from nucleotide 90 to 111 and reverse from nucleotide 235 to 256).
# Peptides were delivered into cells using Chariot protein transfection reagent (Active Motif, Rixensart, Belgium) according to the instruction manual. 16 aa-peptides spanning Tyr residue 1201 of Neu (YC peptide) and Tyr residue 1227 of Neu (YD peptide) were obtained from Neosystem (Strasbourg, France) in phosphorylated and non phosphorylated forms. Cells were plated for migration 30 minutes after peptide transfection and the assay was finished after 22 hours.
# ErbB2 = molecular target: T1, ErbB2 (Homo sapiens, UniProt P04626); assay: Shc immunoprecipitation in SKBr3 cells; format: cell-based
# T1 construct: endogenous in cells; host or cells: SKBr3 breast carcinoma cells
# T1 sequence (P04626 23-1255): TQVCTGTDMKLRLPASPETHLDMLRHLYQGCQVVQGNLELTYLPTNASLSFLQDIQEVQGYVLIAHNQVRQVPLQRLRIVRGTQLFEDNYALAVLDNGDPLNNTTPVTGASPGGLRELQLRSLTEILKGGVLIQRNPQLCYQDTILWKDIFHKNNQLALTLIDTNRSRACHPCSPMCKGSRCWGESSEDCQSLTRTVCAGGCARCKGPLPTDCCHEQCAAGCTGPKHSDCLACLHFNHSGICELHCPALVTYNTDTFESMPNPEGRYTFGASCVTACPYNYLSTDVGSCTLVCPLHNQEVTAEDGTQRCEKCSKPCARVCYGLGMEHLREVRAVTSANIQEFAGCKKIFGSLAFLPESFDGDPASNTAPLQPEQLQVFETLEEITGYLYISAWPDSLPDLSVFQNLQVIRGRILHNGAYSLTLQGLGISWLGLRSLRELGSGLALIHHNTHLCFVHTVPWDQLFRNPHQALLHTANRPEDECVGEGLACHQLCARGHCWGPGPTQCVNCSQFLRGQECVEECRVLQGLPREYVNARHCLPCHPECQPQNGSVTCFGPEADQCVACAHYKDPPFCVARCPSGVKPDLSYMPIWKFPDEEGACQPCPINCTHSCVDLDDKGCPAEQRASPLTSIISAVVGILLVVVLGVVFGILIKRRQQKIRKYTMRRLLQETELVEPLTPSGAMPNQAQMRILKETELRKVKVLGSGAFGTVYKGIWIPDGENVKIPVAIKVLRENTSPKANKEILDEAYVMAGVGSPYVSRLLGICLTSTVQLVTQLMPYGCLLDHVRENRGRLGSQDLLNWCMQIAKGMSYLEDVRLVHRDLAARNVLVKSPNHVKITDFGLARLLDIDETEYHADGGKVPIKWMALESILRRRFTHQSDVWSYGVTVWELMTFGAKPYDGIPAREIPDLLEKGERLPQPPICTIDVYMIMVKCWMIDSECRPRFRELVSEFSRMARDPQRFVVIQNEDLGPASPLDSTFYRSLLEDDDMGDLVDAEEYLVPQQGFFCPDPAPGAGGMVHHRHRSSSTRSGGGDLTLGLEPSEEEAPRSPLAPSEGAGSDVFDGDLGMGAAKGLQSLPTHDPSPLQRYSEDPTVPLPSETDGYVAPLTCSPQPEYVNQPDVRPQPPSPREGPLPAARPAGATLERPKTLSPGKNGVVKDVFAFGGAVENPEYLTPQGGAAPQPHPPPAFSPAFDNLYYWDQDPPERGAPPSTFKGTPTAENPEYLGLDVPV
# T47D and SKBr3 cells [2] = assay: HRG-induced microtubule outgrowth; format: cell-based; settings: nocodazole-treated cells
# T47D and SKBr3 cells [3] = assay: Actin staining / lamellipodia morphology; format: cell-based; settings: nocodazole-treated cells
# Experimental: Cells were grown on glass coverslips (Falcon, Le Pont De Claix, France) coated with 25 μg/ml rat tail collagen I, serum starved overnight and stimulated with 1 nM HRG-β1 for different times. Cells were fixed in 4% formaldehyde in phosphate buffer saline (PBS) for 20 minutes, permeabilized in 0.2% Triton X-100 for 10 minutes, blocked with 1% bovine serum albumin in PBS for 20 minutes before addition of anti-Myc antibody (Santa Cruz) and Alexa-Fluor 568 goat anti-mouse IgG (Molecular Probes, Leiden, The Netherlands). DNA was counterstained with 0.25 mg/ml Hoechst No. 33342 (Sigma). Actin was stained for 45 minutes with 2 U/ml TRITC-labeled phalloidin (Molecular Probes). Images were recorded with an Axioskop Zeiss microscope coupled to a Sony 3CCD camera or an Olympus IX70 microscope linked to the DeltaVision workstation (Applied Precision, Issaquah, Wa)
# F-actin was visualised with TRITC-labelled phalloidin.
# T47D cells = assay: Transwell migration assay; format: cell-based, human; settings: FIG. 1a, 7f
# Experimental: as §1
# as §2, with “Cells were plated for migration assay 3 days after siRNA transfection and allowed to migrate for 24 hours.” left out
compound,measurement,setting,value
"OC[C@H]1O[C@@H](n2cnc3cc(Cl)c(Cl)cc32)[C@H](O)[C@@H]1O [DRB, 5,6-Dichloro-1-β-D-ribofuranosylbenzimidazole]",HRG-induced migration of Neu cells,[1]; FIG. 4a,strongly blocked
C[C@@H](Nc1ncnc2[nH]c(-c3ccc(O)cc3)cc12)c1ccccc1 [PKI166],CGI-27's ability to associate with Shc,ErbB2,did not influence
same,ErbB2 receptor level in Shc immunoprecipitates,ErbB2,lowered
C[C@@H]1C[C@@H]([C@H](O)CC2CC(=O)NC(=O)C2)C(=O)[C@@H](C)C1 [cycloheximide],migration rate of Neu cells,"[1]; compared with NYPD cells, FIG. 4a",reduced the migration rate of Neu cells to that of NYPD cells
same,"migration of YD cells, cycloheximide treatment and Memo knock-down compared","[1]; effects not additive, FIG. 7d",blocked to a similar extent
same,HRG-induced migration of Neu cells,[1]; FIG. 4a,strongly blocked
COC(=O)Nc1nc2ccc(C(=O)c3cccs3)cc2[nH]1 [nocodazole],microtubule growth,T47D and SKBr3 cells [2],do not grow microtubules
same,lamellipodia formation,T47D and SKBr3 cells [3],still capable of forming lamellipodia
"EGF: epidermal growth factor (NSDSECPLSHDGYCLHDGVCMYIEALDKYACNCVVGYIGERCQYRDLKWWELR; Epidermal growth factor; UniProt P01133 971-1023, looked up)",stimulation of T47D cell migration by ligand,T47D cells,to a lower degree
FGF2: Fibroblast growth factor (FGF) 2,stimulation of T47D cell migration by ligand,T47D cells,stimulated T47D cell migration
insulin: insulin,stimulation of T47D cell migration by ligand,T47D cells,to a lower degree
